Target: T1, FAK (Mus musculus, UniProt P34152)
T1 construct: expressed in transfected cells; host or cells: FAK-/- (p53-/-) mouse embryonic fibroblasts stably re-expressing GFP-FAK
Test: GFP-FAK displacement from focal adhesions (fluorescence imaging, ImageJ quantification of focal adhesions per cell)
Assay type: cell-based
Conditions: for IC50: GFP-FAK MEFs on fibronectin, 1 h incubation, focal adhesions per cell, Hill slope model, read-out: IC50 (displacement of FAK from focal adhesions, cellular IC50); for time to FAK displacement, vinculin localization not disturbed: GFP-FAK MEFs stably expressing mKate-vinculin, 40 µM; for time to FAK displacement from focal adhesions: 20 µM, time series; for concentration sufficient to induce FAK displacement: increasing concentrations
From the text: Ectopic expression of FRNK as a dominant negative inhibitor of FAK effectively blocks FAK dependent events. This type of interference seems to be used physiologically for regulation of FAK function in certain cell types (Taylor et al. 2001). However, there is currently no possibility to instantaneously interfere with FAK localization. Therefore, the inventors sought to identify small molecules to disrupt FAK mediated protein-protein-interactions. Towards this line they set-up a High Content Screen based on FAK-/- MEFs re-expressing GFP-FAK to visualize FAK localization at focal adhesions. Cells were seeded on fibronectin and incubated to allow adherence and spreading. Prior to fixation, cell nuclei were Hoechst stained. FAK containing focal adhesions and cells per field of view were quantified using a custom-made macro for ImageJ. The macro identifies focal adhesions due to local maxima of fluorescence intensity in the GFP-channel. Cells were counted in the Hoechst channel based on a binary image. Closely connected cell nuclei were separated by a watershed algorithm. […] Next, as a proof of principle GFP-FAK MEFs were transduced to express mKate2-tagged FRNK. mKate2-FRNK localizes to focal adhesions, where it efficiently displaces GFP-FAK (Figure 2). […] Consequently, the software can correctly identify FAK displacement from focal adhesions.
In order to find small molecules which induce the specific delocalization of FAK, two commercial compound libraries with more than 17.000 entries were screened. GFP-FAK MEFs were seeded on fibronectin in multi-well plates and compounds were transferred to the cells with a robot to a final concentration of 40 µM. Cells were incubated for 4 h and nuclei were Hoechst stained prior to fixation. Cells were imaged with an automated microscope and data were analyzed with the ImageJ macro. In the first screening round the macro identified 108 hits, which were curated by visual inspection to exclude instances of dramatic cell rounding and/or detachment. […] To validate these primary hits the inventors transduced the GFP-FAK MEFs to stably express mKate-vinculin, which serves as a FAK-independent marker of focal adhesions and facilitates indication of specific FAK displacement. On a first approach two compounds were identified, which induced FAK displacement within less than 1 h, while vinculin localization was not disturbed (Figure 4). […] Strikingly, they share distinct structural characteristics since both compounds have a NO2-group and an isosteric halogen-substituted phenyl- or thiophene-group (Figure 5).
In order to investigate the kinetics of FAK displacement at focal adhesions a time series was performed. GFP-FAK MEFs were treated with 20 µM of Mb31 or Mb36 and fixed after different time points. […] Mb36 kinetic was slightly slower with FAK delocalization after 20 min. In addition, GFP-FAK MEFs were treated with increasing concentrations of Mb31 or Mb36 to determine the minimum concentration required to interfere with FAK localization. Untreated or solvent (DMSO) treated cells show the expected localization of FAK at focal adhesions. […] Already 2 µM of Mb31 were sufficient to induce FAK displacement. […] Due to the faster kinetic and lower IC50 compared to Mb36 further studies were mainly performed using Mb31. […] In contrast, vinculin localization and the focal adhesion localization of talin, α-actinin, and zyxin is not disturbed (Figure 5 and Table 1).
About 17.000 compounds (40 µM working concentration) were screened for their ability to displace GFP-FAK from focal adhesions (FA) using an automated microscope (ImageXpress Micro, Molecular Devices, Ismaning, Germany) equipped with a Nikon 20x/0.75 NA CFI Plan Apo objective. […]

T1 sequence (P34152 whole entry): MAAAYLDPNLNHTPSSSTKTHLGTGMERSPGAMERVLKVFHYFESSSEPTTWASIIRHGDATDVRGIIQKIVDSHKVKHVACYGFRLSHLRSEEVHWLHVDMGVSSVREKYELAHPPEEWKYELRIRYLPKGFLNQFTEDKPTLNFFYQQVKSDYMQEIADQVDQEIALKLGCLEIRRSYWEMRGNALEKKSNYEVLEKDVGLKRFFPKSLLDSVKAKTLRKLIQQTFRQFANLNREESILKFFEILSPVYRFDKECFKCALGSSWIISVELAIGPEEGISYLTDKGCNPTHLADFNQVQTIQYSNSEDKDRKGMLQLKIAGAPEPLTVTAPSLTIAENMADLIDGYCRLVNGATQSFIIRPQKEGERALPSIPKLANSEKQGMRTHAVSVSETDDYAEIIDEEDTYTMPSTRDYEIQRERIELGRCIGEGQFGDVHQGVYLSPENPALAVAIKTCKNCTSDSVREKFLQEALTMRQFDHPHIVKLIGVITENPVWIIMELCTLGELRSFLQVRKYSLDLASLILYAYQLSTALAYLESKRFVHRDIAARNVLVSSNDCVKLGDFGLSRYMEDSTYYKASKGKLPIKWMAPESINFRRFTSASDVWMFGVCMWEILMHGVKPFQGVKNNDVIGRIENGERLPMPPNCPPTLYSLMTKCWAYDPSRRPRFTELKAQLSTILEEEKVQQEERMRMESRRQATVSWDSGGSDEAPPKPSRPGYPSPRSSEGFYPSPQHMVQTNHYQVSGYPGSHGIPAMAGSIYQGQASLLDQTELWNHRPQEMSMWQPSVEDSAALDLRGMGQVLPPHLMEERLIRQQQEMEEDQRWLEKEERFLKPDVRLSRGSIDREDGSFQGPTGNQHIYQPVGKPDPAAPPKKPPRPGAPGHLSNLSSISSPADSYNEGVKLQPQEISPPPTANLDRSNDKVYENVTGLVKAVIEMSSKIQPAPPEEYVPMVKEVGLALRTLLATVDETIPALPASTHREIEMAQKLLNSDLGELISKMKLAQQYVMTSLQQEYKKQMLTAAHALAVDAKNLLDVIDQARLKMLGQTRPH

Row | Compound | IC50 | time to FAK displacement, vinculin localization not disturbed | time to FAK displacement from focal adhesions (GFP-FAK MEFs) | concentration sufficient to induce FAK displacement (GFP-FAK MEFs) | concentration sufficient for efficient FAK displacement (second approach, narrower concentration range (1-5 µM)) | effect on FAK localization (GFP-FAK MEFs, 2 µM)
1 | O=[N+]([O-])C=Cc1cc(Br)cs1 [FootLocker 1, 4-bromo-2-(2-nitrovinyl)thiophene] | ~2 µM | less than 1 h | ≤ 5 min | 2 µM | about 4 µM | –
2 | Nc1ccc(SC(C[N+](=O)[O-])c2ccc(Cl)cc2)cc1 (stereo not shown) [FootLocker 2, 4-{[1-(4-chlorophenyl)-2-nitroethyl]thio}aniline] | ~4.1 µM | less than 1 h | 20 min | 5 µM | – | no effect was observed
